One compound from paper PMC3029496 (Biochemistry, 2010) can be followed below.

The target in this assay is PncA H57D mutant (Mycobacterium tuberculosis, UniProt I6XD65, H57D). Format: biochemical.

For `NC(=O)c1cnccn1` [pyrazinamide], the “decrease in Km, H57D mutant versus wild type” value is reported as 20 fold; the “decrease in kcat (catalytic turnover), H57D mutant versus wild type” value was found to be 38 fold; the kcat (commonly the number of substrate molecules converted per active site and unit of time at saturation) was determined as 0.10 ± 0.01 s⁻¹.
